Experimental data taken from patent publication US7902156B2 (Angiochem Inc., priority 2005, dated 2011).
Like-named read-outs stand apart in the source and are kept apart here. Residues, ends and D or L forms follow the SMILES beside them. No end group written: not given here.

Columns and labels:
[1] = tested on: in vitro model of the BBB (bovine brain capillary endothelial cells); assay: Second level screening: [125I]-peptide passage in the in vitro BBB model (cpm ratios)
Method: This BBCEC medium was changed three times a week.
The medium was changed twice a week.
Briefly, the selected peptides were iodinated with standard procedures using iodo-beads from Sigma. Two iodo-beads were used for each protein. […] The iodination for each peptide was initiated by adding 100 μg (80-100 μl) of the bead suspension. […] Fractions of 0.5 ml were collected and the radioactivity in 5 μl of each fraction was measured.
The iodinated peptides were also investigated with the in vitro model of the BBB. […] Results were expressed as cpm ratios.

[2] = tested on: in vitro model of the BBB (co-culture of bovine brain capillary endothelial cells and rat glial cells); assay: First level screening: peptide passage in the in vitro BBB model, Coomassie blue detection; conditions: 90 minutes at 37° C.
[3] = tested on: in vitro BBB model (BBCEC monolayers grown on filters in the presence of astrocytes); assay: Permeability coefficient (Pe) / transcytosis capacity in the in vitro BBB model; assay type: in vitro ADME, bovine; conditions: third level of selection, peptide at 250 nM
Method: At different times, inserts were placed into another well.
Transcytosis capacity of Aprotinin-Paclitaxel conjugate was determined and is reported below in Table 5.

mouse brain = assay: In situ cerebral perfusion with post-perfusion capillary depletion; assay type: in vivo, mice; conditions: perfusion 5 min; for Volume of distribution, Capillaries % / Volume of distribution, Parenchyma %: share of homogenate; for Volume of distribution, Homogenate: total brain
From the text: The in situ cerebral perfusion (in mice) was used as the fourth level of selection to select the best peptides. This procedure also distinguishes between compounds remaining in the brain vascular compartment from those having crossed the abluminal endothelial membrane to enter the brain parenchyma. Indeed, the technique of post-perfusion capillary depletion allows to measure whether the molecule really crosses the endothelium to enter the brain parenchyma.

brain tumor model = conditions: injected alone at the maximal tolerated dose (54 mg/kg); cited from earlier work
[4] = [125I]-peptide, cpm in bottom chamber / total cpm added, filter covered with endothelial cells, 90 minutes at 37° C.

| Permeability coefficient (Pe) [3] | Volume of distribution, Capillaries (mouse brain) | Volume of distribution, Capillaries % (mouse brain) | Volume of distribution, Homogenate (mouse brain) | Compound | Peptide detected in the lower side of the chambers by Coomassie blue staining [2] | other results |
| --- | --- | --- | --- | --- | --- | --- |
|  |  |  |  | C[C@@H](O)[C@H](NC(=O)[C@H](CCCCN)NC(=O)[C@H](Cc1ccccc1)NC(=O)[C@H](CC(N)=O)NC(=O)[C@H](CC(N)=O)NC(=O)[C@H](CCCNC(=N)N)NC(=O)[C@H](CCCCN)NC(=O)CNC(=O)[C@H](CCCNC(=N)N)NC(=O)[C@H](CS)NC(=O)[C@H](CS)NC(=O)CNC(=O)[C@H](Cc1ccc(O)cc1)NC(=O)[C@H](Cc1ccccc1)NC(=O)[C@H](Cc1ccccc1)NC(=O)[C@@H](NC(=O)[C@@H](N)CS)[C@@H](C)O)C(=O)N[C@@H](CCC(=O)O)C(=O)N[C@@H](CCC(=O)O)C(=O)N[C@@H](Cc1ccc(O)cc1)C(=O)O [Peptide 71, CTFFYGCCRGKRNNFKTEEY] (H-CTFFYGCCRGKRNNFKTEEY-OH; N-terminus and C-terminus assumed) | detected in the lower side of the chambers | Ratio −cells/initial [1]: 0.072; Ratio +cells/−cells ([1]; [125I]-peptide in bottom chamber of filters covered with vs without endothelial cells): 0.37; Ratio +cells/initial [1, 4]: 0.027 |
|  |  |  |  | TFFYGGCRGNRNNFLTAEY [Peptide 45, T F F Y G G C R G N R N N F L T A E Y] | detected in the lower side of the chambers |  |
| highest Pe | 181 ml/100 g | 90% | 198 ml/100 g | TFFYGGCRGKRNNFKTKRY [Peptide 78, T F F Y G G C R G K R N N F K T K R Y] | detected in the lower side of the chambers | Volume of distribution, Parenchyma (mouse brain): 16 ml/100 g; Volume of distribution, Parenchyma % (mouse brain): 10% |
|  |  |  |  | TFFYGGKRGKRNNFKREKY [Peptide 81, T F F Y G G K R G K R N N F K R E K Y] | detected in the lower side of the chambers |  |
|  | 1082 ml/100 g | 95% | 1141 ml/100 g | TFFYGGSRGNRNNFKTAKY [Peptide 25, T F F Y G G S R G N R N N F K T A K Y] |  | Volume of distribution, Parenchyma (mouse brain): 60 ml/100 g; Volume of distribution, Parenchyma % (mouse brain): 5% |
| highest Pe | 204 ml/100 g | 82% | 250 ml/100 g | TFFYGGCRGKKNNFKRAKY [Peptide 8, T F F Y G G C R G K K N N F K R A K Y] | detected in the lower side of the chambers | Volume of distribution, Parenchyma (mouse brain): 46 ml/100 g; Volume of distribution, Parenchyma % (mouse brain): 18% |
|  |  |  |  | CC(=O)O[C@H]1C(=O)[C@@]2(C)[C@H]([C@H](OC(=O)c3ccccc3)[C@]3(O)C[C@H](OC(=O)[C@H](O)[C@@H](NC(=O)c4ccccc4)c4ccccc4)C(C)=C1C3(C)C)[C@]1(OC(C)=O)CO[C@@H]1C[C@@H]2O [paclitaxel] |  | Mouse survival (brain tumor model): unable to increase mouse survival |
| highest Pe | 52 ml/100 g | 74% | 70 ml/100 g | TFFYGGKRGKRNNFKTAEY [Peptide 79, T F F Y G G K R G K R N N F K T A E Y] | detected in the lower side of the chambers | Volume of distribution, Parenchyma (mouse brain): 18 ml/100 g; Volume of distribution, Parenchyma % (mouse brain): 26% |
| highest Pe | 13 ml/100 g | 34% | 38 ml/100 g | TFFYGGCRGKRNNFKTEEY-NH2 [Peptide 67, T F F Y G G C R G K R N N F K T E E Y] | detected in the lower side of the chambers |  |
|  |  |  |  | C[C@@H](O)[C@H](N)C(=O)N[C@@H](Cc1ccccc1)C(=O)N[C@@H](Cc1ccccc1)C(=O)N[C@@H](Cc1ccc(O)cc1)C(=O)NCC(=O)NCC(=O)N[C@@H](CO)C(=O)N[C@@H](CCCNC(=N)N)C(=O)NCC(=O)N[C@@H](CCCCN)C(=O)N[C@@H](CCCNC(=N)N)C(=O)N[C@@H](CC(N)=O)C(=O)N[C@@H](CC(N)=O)C(=O)N[C@@H](Cc1ccccc1)C(=O)N[C@@H](CCCCN)C(=O)N[C@H](C(=O)N[C@@H](CCC(=O)O)C(=O)N[C@@H](CCC(=O)O)C(=O)N[C@@H](Cc1ccc(O)cc1)C(=O)O)[C@@H](C)O [Peptide 70, T F F Y G G S R G K R N N F K T E E Y] | detected in the lower side of the chambers |  |
|  |  |  |  | TFFYGGKRGKRNNFKTEEY [Peptide 77, T F F Y G G K R G K R N N F K T E E Y] | detected in the lower side of the chambers |  |
|  |  |  |  | PFFYGGCRGKRNNFKTEEY [Peptide 75, P F F Y G G C R G K R N N F K T E E Y] | detected in the lower side of the chambers |  |
| highest Pe | 217 ml/100 g | 73% | 312 ml/100 g | TFFYGGCRAKRNNFKRAKY-NH2 [Peptide 5, T F F Y G G C R A K R N N F K R A K Y] | detected in the lower side of the chambers | Ratio +cells/initial [1, 4]: 0.051 |
| highest Pe | 76 ml/100 g | 88% | 87 ml/100 g | RFKYGGCLGNKNNFLRLKY [Peptide 90, R F K Y G G C L G N K N N F L R L K Y] | detected in the lower side of the chambers | Volume of distribution, Parenchyma (mouse brain): 11 ml/100 g; Volume of distribution, Parenchyma % (mouse brain): 12% |
|  |  |  |  | C[C@@H](O)[C@H](NC(=O)[C@H](CCCCN)NC(=O)[C@H](Cc1ccccc1)NC(=O)[C@H](CC(N)=O)NC(=O)[C@H](CC(N)=O)NC(=O)[C@H](CCCNC(=N)N)NC(=O)[C@H](CCCCN)NC(=O)CNC(=O)[C@H](CCCNC(=N)N)NC(=O)[C@H](CS)NC(=O)[C@H](CO)NC(=O)CNC(=O)[C@H](Cc1ccc(O)cc1)NC(=O)[C@H](Cc1ccccc1)NC(=O)[C@H](Cc1ccccc1)NC(=O)[C@@H](NC(=O)[C@@H](N)CS)[C@@H](C)O)C(=O)N[C@@H](CCC(=O)O)C(=O)N[C@@H](CCC(=O)O)C(=O)N[C@@H](Cc1ccc(O)cc1)C(=O)O [Peptide 73, CTFFYGSCRGKRNNFKTEEY] (H-CTFFYGSCRGKRNNFKTEEY-OH; N-terminus and C-terminus assumed) | detected in the lower side of the chambers |  |
|  |  |  |  | C[C@@H](O)[C@H](N)C(=O)N[C@@H](Cc1ccccc1)C(=O)N[C@@H](Cc1ccccc1)C(=O)N[C@@H](Cc1ccc(O)cc1)C(=O)NCC(=O)NCC(=O)N[C@@H](CS)C(=O)N[C@@H](CCCNC(=N)N)C(=O)NCC(=O)N[C@@H](CCCCN)C(=O)N[C@@H](CCCNC(=N)N)C(=O)N[C@@H](CC(N)=O)C(=O)N[C@@H](CC(N)=O)C(=O)N[C@@H](Cc1ccccc1)C(=O)N[C@@H](CCCCN)C(=O)N[C@H](C(=O)N[C@@H](CCC(=O)O)C(=O)N[C@@H](CCC(=O)O)C(=O)N[C@@H](Cc1ccc(O)cc1)C(=O)N[C@@H](CS)C(=O)O)[C@@H](C)O [Peptide 72, TFFYGGCRGKRNNFKTEEYC] (H-TFFYGGCRGKRNNFKTEEYC-OH; N-terminus and C-terminus assumed) | detected in the lower side of the chambers |  |
|  |  |  |  | TFFYGGKRGKRNNFKRAKY [Peptide 82, T F F Y G G K R G K R N N F K R A K Y] | detected in the lower side of the chambers |  |

| Compound | Permeability coefficient (Pe) [3] | Volume of distribution, Capillaries (mouse brain) | Volume of distribution, Capillaries % (mouse brain) | Volume of distribution, Homogenate (mouse brain) | Peptide detected in the lower side of the chambers by Coomassie blue staining [2] | other results |
| --- | --- | --- | --- | --- | --- | --- |
| R F K Y G G C L G N K N N Y L R L K Y (RFKYGGCLGNKNNYLRLKY-NH2) [Peptide 91] | highest Pe | 24 ml/100 g | 59% | 47 ml/100 g | detected in the lower side of the chambers | Ratio +cells/initial [1]: 0.158; Ratio −cells/initial [1]: 0.406 |
| T F F Y G G C R G K R N N F K T K E Y (TFFYGGCRGKRNNFKTKEY-NH2) [Peptide 76] | highest Pe | 16 ml/100 g | 40% | 40 ml/100 g | detected in the lower side of the chambers | Ratio +cells/initial [1]: 0.084; Ratio −cells/initial [1]: 0.222 |
